# Experimental data: ChEMBL document CHEMBL5543144, “Discovery of a Novel Potent Tetrazole Antifungal Candidate with High Selectivity and Broad Spectrum” (J Med Chem, 2024)
# Active and inactive are the calls of the source. The calls are words filed in the database; no cut-off is given here.
# What was measured:
# Candida albicans [1] = assay: Antifungal activity against Candida albicans SC5314 assessed as inhibition of fungal growth incubated for 24 hrs by CLSI protocol based microbroth dilution method; format: functional
# Candida parapsilosis = assay: Antifungal activity against Candida parapsilosis 22019 assessed as inhibition of fungal growth incubated for 24 hrs by CLSI protocol based microbroth dilution method; format: functional; conditions: Lodderomyces parapsilosis
# Candida tropicalis [2] = assay: Antifungal activity against Candida tropicalis 2718 assessed as inhibition of fungal growth incubated for 24 hrs by CLSI protocol based microbroth dilution method; format: functional
# Pichia kudriavzevii [3] = assay: Antifungal activity against Candida krusei 4946 assessed as inhibition of fungal growth incubated for 24 hrs by CLSI protocol based microbroth dilution method; format: functional
# Nakaseomyces glabratus [4] = assay: Antifungal activity against Candida glabrata 537 assessed as inhibition of fungal growth incubated for 48 hrs by CLSI protocol based microbroth dilution method; format: functional
# Cryptococcus neoformans [5] = assay: Antifungal activity against Cryptococcus neoformans H99 assessed as inhibition of fungal growth incubated for 72 hrs by CLSI protocol based microbroth dilution method; format: functional
# Aspergillus fumigatus = assay: Antifungal activity against Aspergillus fumigatus 7544 assessed as inhibition of fungal growth incubated for 48 hrs by CLSI protocol based microbroth dilution method; format: functional
# [Candida] auris [6] = Antifungal activity against fluconazole resistant Candida auris 887 assessed as inhibition of fungal growth incubated for 48 hrs by CLSI protocol based microbroth dilution method; format: functional; conditions: Candidozyma auris
# [Candida] auris [7] = Antifungal activity against fluconazole resistant Candida auris 888 assessed as inhibition of fungal growth incubated for 48 hrs by CLSI protocol based microbroth dilution method; format: functional; conditions: Candidozyma auris
# [Candida] auris [8] = Antifungal activity against fluconazole resistant Candida auris D12 assessed as inhibition of fungal growth incubated for 48 hrs by CLSI protocol based microbroth dilution method; format: functional; conditions: Candidozyma auris
# [Candida] auris [9] = Antifungal activity against fluconazole resistant Candida auris BS12372 assessed as inhibition of fungal growth incubated for 48 hrs by CLSI protocol based microbroth dilution method; format: functional; conditions: Candidozyma auris
# [Candida] auris [10] = Antifungal activity against fluconazole resistant Candida auris 789 assessed as inhibition of fungal growth incubated for 48 hrs by CLSI protocol based microbroth dilution method; format: functional; conditions: Candidozyma auris
# [Candida] auris [11] = Antifungal activity against fluconazole resistant Candida auris 791 assessed as inhibition of fungal growth incubated for 48 hrs by CLSI protocol based microbroth dilution method; format: functional; conditions: Candidozyma auris
# Candida albicans [12] = assay: Antifungal activity against Candida albicans SC5314 infected in ICR mouse model assessed as fungal burden in kidney at 1 mg/kg/day, po pre-infected with fungi for 2 hrs followed by compound administration and measured after 48 hrs (reference value: 3.89 Log10CFU/g); format: functional
# Erythrocyte = assay: Hemolytic activity in rabbit RBC assessed as hemolysis at 64 ug/ml incubated for 1 hrs by absorbance based assay; format: toxicity, cell-based, Oryctolagus cuniculus; conditions: dose 64 µg/ml
# [13] = biological target: T1, Lanosterol 14-alpha demethylase (Candida albicans (strain SC5314 / ATCC MYA-2876) (Yeast), UniProt P10613); assay: Inhibition of CYP51 in Candida albicans SC5314 assessed as ergosterol level at 0.5 ug/ml incubated for 8 hrs by GC-MS analysis (reference value: 79.31%); set-up: scale not given: the % may be the effect or the level left; conditions: at 0.5 µg/mL
# Cell membrane = assay: Disruption of cell membrane integrity in Candida albicans SC5314 assessed as increase in increase in red fluorescence at 0.5 ug/ml incubated for 8 hrs by PI staining based fluorescence microscopic analysis; conditions: dose 0.5 µg/ml
# Candida albicans [14] = assay: Antifungal activity against Candida albicans SC5314 assessed as inhibition of fungal growth at 0.0156 ug/ml incubated for 24 hrs by plate reader analysis; format: functional, organism-based; conditions: dose 0.0156 µg/ml
# Cryptococcus neoformans [15] = assay: Antifungal activity against Cryptococcus neoformans H99 assessed as inhibition of fungal growth at 0.125 ug/ml incubated for 48 hrs by plate reader analysis; format: functional, organism-based; conditions: dose 0.125 µg/ml
# Nakaseomyces glabratus [16] = assay: Antifungal activity against Candida glabrata 537 assessed as inhibition of fungal growth at 0.25 ug/ml incubated for 24 hrs by plate reader analysis; format: functional, organism-based; conditions: dose 0.25 µg/ml
# Pichia kudriavzevii [17] = assay: Antifungal activity against Candida krusei 4946 assessed as inhibition of fungal growth at 0.125 ug/ml incubated for 24 hrs by plate reader analysis; format: functional, organism-based; conditions: dose 0.125 µg/ml
# Candida tropicalis [18] = assay: Antifungal activity against Candida tropicalis 2718 assessed as inhibition of fungal growth at 32 ug/ml incubated for 24 hrs by plate reader analysis; format: functional, organism-based; conditions: dose 32.0 µg/ml
# Candida albicans [19] = assay: Inhibition of biofilm formation in Candida albicans SC5314 incubated for 24 hrs by XTT reduction assay; format: functional, organism-based; conditions: dose 0.008-4 µg/ml
# Candida albicans [20] = assay: Inhibition of biofilm formation in Candida albicans SC5314 at 0.008 ug/ml incubated for 24 hrs by XTT reduction assay relative to control; format: functional
# [21] = Half-life in male ICR (CD-1) mouse at 5 mg/kg, iv by LC-MS/MS analysis; format: ADME, organism-based; conditions: in vivo
# [22] = AUC (0 to t) in male ICR (CD-1) mouse at 5 mg/kg, iv by LC-MS/MS analysis; format: ADME, organism-based; conditions: in vivo
# [23] = Clearance in male ICR (CD-1) mouse at 5 mg/kg, iv by LC-MS/MS analysis; format: ADME, organism-based; conditions: in vivo
# [24] = MRT (0 to t) in male ICR (CD-1) mouse at 5 mg/kg, iv by LC-MS/MS analysis; format: ADME, organism-based; conditions: in vivo
# [25] = Volume of distribution at steady state in male ICR (CD-1) mouse at 5 mg/kg, iv by LC-MS/MS analysis; format: ADME, organism-based; conditions: in vivo, read-out: Vdss
# [26] = Cmax in male ICR (CD-1) mouse at 10 mg/kg, po by LC-MS/MS analysis; format: ADME, organism-based; conditions: in vivo
# [27] = Tmax in male ICR (CD-1) mouse at 10 mg/kg, po by LC-MS/MS analysis; format: ADME, organism-based; conditions: in vivo
# [28] = Half-life in male ICR (CD-1) mouse at 10 mg/kg, po by LC-MS/MS analysis; format: ADME, organism-based; conditions: in vivo
# [29] = AUC (0 to t) in male ICR (CD-1) mouse at 10 mg/kg, po by LC-MS/MS analysis; format: ADME, organism-based; conditions: in vivo
# [30] = MRT (0 to t) in male ICR (CD-1) mouse at 10 mg/kg, po by LC-MS/MS analysis; format: ADME, organism-based; conditions: in vivo
# [31] = Oral bioavailability in male ICR (CD-1) mouse at 10 mg/kg by LC-MS//MS analysis; format: ADME, organism-based; conditions: in vivo
# Candida albicans [32] = assay: Antifungal activity against Candida albicans SC5314 infected in ICR mouse model assessed as fungal burden in kidney at 5 mg/kg/day, po pre-infected with fungi for 2 hrs followed by compound administration and measured after 48 hrs (reference value: 3.89 Log10CFU/g); format: functional
# Candida albicans [33] = assay: Antifungal activity against Candida albicans SC5314 infected in ICR mouse model assessed as reduction in fungal burden in kidney pre-infected with fungi for 2 hrs followed by oral administration of compound and measured after 48 hrs; format: functional, organism-based; conditions: dose 1-5 mg/kg/day
# Candida albicans [34] = assay: Antifungal activity against Candida albicans SC5314 infected in ICR mouse model assessed as median survival time at 1 mg/kg/day, po pre-infected with fungi for 2 hrs followed by compound administration and measured after 48 hrs (reference value: 3.5 days); format: functional
# Candida albicans [35] = assay: Antifungal activity against Candida albicans SC5314 infected in ICR mouse model assessed as median survival time at 5 mg/kg/day, po pre-infected with fungi for 2 hrs followed by compound administration and measured after 48 hrs (reference value: 3.5 days); format: functional
# [36] = biological target: T1, Lanosterol 14-alpha demethylase; assay: Inhibition of CYP51 in Candida albicans SC5314 assessed as decrease in ergosterol level at 0.008 ug/ml incubated for 8 hrs by GC-MS analysis; conditions: at 0.008 µg/mL
# [37] = biological target: T1, Lanosterol 14-alpha demethylase; assay: Inhibition of CYP51 in Candida albicans SC5314 assessed as increase in obtusifoliol level at 0.008 ug/ml incubated for 8 hrs by GC-MS analysis relative to control; set-up: scale not given: the % may be the effect or the level left; conditions: at 0.008 µg/mL
# [38] = biological target: T1, Lanosterol 14-alpha demethylase; assay: Inhibition of CYP51 in Candida albicans SC5314 assessed as increase in eburicol level at 0.008 ug/ml incubated for 8 hrs by GC-MS analysis relative to control; set-up: scale not given: the % may be the effect or the level left; conditions: at 0.008 µg/mL
# Candida albicans [39] = assay: Antifungal activity in Candida albicans SC5314 assessed as inhibition of fungal growth incubated for 4 days by induction of resistance assay; format: functional; conditions: SC5314, 96 h, time 4 day
# Candida albicans [40] = assay: Antifungal activity in Candida albicans SC5314 assessed as inhibition of fungal growth incubated for 17 days by induction of resistance assay; format: functional; conditions: SC5314, 408 h, time 17 day
# T1 sequence (P10613 whole entry): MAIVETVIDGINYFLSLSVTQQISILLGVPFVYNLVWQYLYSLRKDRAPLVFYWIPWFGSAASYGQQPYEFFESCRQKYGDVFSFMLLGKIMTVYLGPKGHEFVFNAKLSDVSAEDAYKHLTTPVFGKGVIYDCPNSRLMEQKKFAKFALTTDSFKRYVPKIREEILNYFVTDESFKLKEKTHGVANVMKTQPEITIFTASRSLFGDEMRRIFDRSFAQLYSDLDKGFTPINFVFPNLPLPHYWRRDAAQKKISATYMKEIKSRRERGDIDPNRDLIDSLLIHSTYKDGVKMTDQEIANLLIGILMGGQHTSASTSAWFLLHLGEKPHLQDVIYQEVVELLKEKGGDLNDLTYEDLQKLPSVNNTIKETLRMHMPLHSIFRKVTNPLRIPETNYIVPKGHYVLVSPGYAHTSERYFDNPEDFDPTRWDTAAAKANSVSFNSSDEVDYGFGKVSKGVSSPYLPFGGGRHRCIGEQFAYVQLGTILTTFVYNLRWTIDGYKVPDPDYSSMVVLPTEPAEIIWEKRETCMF
smiles,measurement,setting,value
OC(Cn1cncn1)(Cn1cncn1)c1ccc(F)cc1F [FLUCONAZOLE],MIC50,Candida albicans [1],0.125 µg/mL
same,MIC50,Candida parapsilosis,1 µg/mL
same,MIC50,Candida tropicalis [2],< 0.125 µg/mL
same,MIC50,Pichia kudriavzevii [3],8 µg/mL
same,MIC50,Nakaseomyces glabratus [4],0.5 µg/mL
same,MIC50,Cryptococcus neoformans [5],8 µg/mL
same,MIC50,Aspergillus fumigatus,> 64 µg/mL
same,MIC50,[Candida] auris [6],> 64 µg/mL
same,MIC50,[Candida] auris [7],> 64 µg/mL
same,MIC50,[Candida] auris [8],> 64 µg/mL
same,MIC50,[Candida] auris [9],> 64 µg/mL
same,MIC50,[Candida] auris [10],> 64 µg/mL
same,MIC50,[Candida] auris [11],> 64 µg/mL
same,Activity,Candida albicans [12],2.41 log10CFU/g
same,Activity,Erythrocyte,Non-Toxic
same,Activity,[13],10.61%
same,Activity,Cell membrane,Active
C[C@@H](n1ccc2cc(Cl)ccc2c1=O)[C@](O)(Cn1cnnn1)c1ccc(F)cc1F,MIC50,Candida albicans [1],< 0.008 µg/mL
same,MIC50,Candida parapsilosis,< 0.008 µg/mL
same,MIC50,Candida tropicalis [2],< 0.008 µg/mL
same,MIC50,Pichia kudriavzevii [3],0.031 µg/mL
same,MIC50,Nakaseomyces glabratus [4],< 0.008 µg/mL
same,MIC50,Cryptococcus neoformans [5],< 0.008 µg/mL
same,MIC50,Aspergillus fumigatus,2 µg/mL
same,MIC50,[Candida] auris [6],0.5 µg/mL
same,MIC50,[Candida] auris [7],0.25 µg/mL
same,MIC50,[Candida] auris [8],< 0.125 µg/mL
same,MIC50,[Candida] auris [9],< 0.125 µg/mL
same,MIC50,[Candida] auris [10],0.5 µg/mL
same,MIC50,[Candida] auris [11],1 µg/mL
same,Activity,Candida albicans [14],Active
same,Activity,Cryptococcus neoformans [15],Active
same,Activity,Nakaseomyces glabratus [16],Active
same,Activity,Pichia kudriavzevii [17],Active
same,Activity,Candida tropicalis [18],Active
same,inhibition,Candida albicans [19],Dose-Dependent Effect
same,inhibition at 0.008 µg/mL,Candida albicans [20],> 70%
same,half-life,[21],4.28 h
same,AUC(0-t),[22],18500 ng·h/mL
same,clearance,[23],3.27 mL/min/kg
same,MRT last,[24],3.27 h
same,Vd,[25],1.23 L/kg
same,Cmax,[26],2630 ng/mL
same,Tmax,[27],2 h
same,half-life,[28],6.71 h
same,AUC(0-t),[29],13600 ng·h/mL
same,MRT last,[30],3.66 h
same,bioavailability,[31],36.8%
same,Activity,Candida albicans [12],2.92 log10CFU/g
same,Activity,Candida albicans [32],2.25 log10CFU/g
same,Activity,Candida albicans [33],Dose-Dependent Effect
same,MST,Candida albicans [34],8.5 days
same,MST,Candida albicans [35],10 days
same,Activity,Erythrocyte,Non-Toxic
same,inhibition (INH),[36],Active
same,Activity,[37],19.33%
same,Activity,[38],24.85%
same,Activity,Cell membrane,Active
same,MIC,Candida albicans [39],0.016 µg/mL
same,MIC,Candida albicans [40],0.125 µg/mL
